# Data from paper PMC7414797 (Nature, 2015).
# Several values for one entry are separate records, joined by “and”; a condition that tells them apart may be missing. Equal entries are not always repeated. Where two headings read alike, the source gives them in different places.
# Columns and labels:
# Enterococcus faecalis = assay: MIC by broth microdilution; format: cell-based; conditions: for MIC Range: Enterococcus faecalis 50% VRE, 10 contemporary clinical isolates; for MIC90: Enterococcus faecalis, VRE
# Streptococcus agalactiae = assay: MIC by broth microdilution; format: cell-based; conditions: for MIC90: Streptococcus agalactiae
# Staphylococcus aureus = assay: MIC by broth microdilution; format: cell-based; conditions: for MIC90: Staphylococcus aureus
# Streptococcus pyogenes = assay: MIC by broth microdilution; format: cell-based; conditions: for MIC90: Streptococcus pyogenes
# S. epidermidis = assay: MIC by broth microdilution; format: cell-based; conditions: for MIC90: Staphylococcus epidermidis
# Streptococcus pneumoniae = assay: MIC by broth microdilution; format: cell-based; conditions: for MIC90: Streptococcus pneumoniae, PRSP
# [1] = test system: Viridans group streptococci; assay: MIC by broth microdilution; format: cell-based
# Enterococcus faecium = assay: MIC by broth microdilution; format: cell-based; conditions: for MIC Range: E. faecium 50%VRE, 10 contemporary clinical isolates; for MIC90: Enterococcus faecium, VRE
# S. aureus MRSA ATCC33591 = assay: Mouse sepsis protection model; format: in vivo, mice; conditions: MRSA septicemia, single i.v. dose 1 h post-infection, survival at 48 h
# [2] = S. agalactiae, 10 contemporary clinical isolates
# [3] = S. aureus Daptomycin^NS, 5 contemporary clinical isolates
# [4] = S. aureus MRSA, 20 contemporary clinical isolates
# [5] = S. aureus VISA, 10 contemporary clinical isolates
# [6] = Staphylococcus aureus MSSA, 20 contemporary clinical isolates
# [7] = S. pyogenes, 10 contemporary clinical isolates
# [8] = S. epidermidis, 20 contemporary clinical isolates
# [9] = Viridans Group Streptococci, 5 isolates (S. sanguis, S. mitis, S. anginosus, S. intermedius, S. salivarius)
SMILES,MIC Range (Enterococcus faecalis) [µg/mL],MIC90 (Enterococcus faecalis) [µg/mL],MIC Range (Streptococcus agalactiae; [2]) [µg/mL],MIC90 (Streptococcus agalactiae) [µg/mL],MIC Range (Staphylococcus aureus; [3]) [µg/mL],MIC Range (Staphylococcus aureus; [4]) [µg/mL],MIC Range (Staphylococcus aureus; [5]) [µg/mL],MIC Range (Staphylococcus aureus; [6]) [µg/mL],MIC90 (Staphylococcus aureus; MRSA) [µg/mL],MIC90 (Staphylococcus aureus; MSSA) [µg/mL],MIC90 (Staphylococcus aureus; VISA) [µg/mL],MIC Range (Streptococcus pyogenes; [7]) [µg/mL],MIC90 (Streptococcus pyogenes) [µg/mL],MIC Range (S. epidermidis; [8]) [µg/mL],MIC90 (S. epidermidis) [µg/mL],MIC90 (Streptococcus pneumoniae) [µg/mL],"MIC Range [1, 9] [µg/mL]",MIC Range (Enterococcus faecium) [µg/mL],MIC90 (Enterococcus faecium) [µg/mL],other results
CCCCCCCCCC(=O)N[C@@H](Cc1c[nH]c2ccccc12)C(=O)N[C@H](CC(N)=O)C(=O)N[C@@H](CC(=O)O)C(=O)N[C@@H]1C(=O)NCC(=O)N[C@@H](CCCN)C(=O)N[C@@H](CC(=O)O)C(=O)N[C@H](C)C(=O)N[C@@H](CC(=O)O)C(=O)NCC(=O)N[C@H](CO)C(=O)N[C@@H]([C@H](C)CC(=O)O)C(=O)N[C@@H](CC(=O)c2ccccc2N)C(=O)O[C@@H]1C [Daptomycin],0.12 to 8,0.5,0.06 to 0.25,0.12,2 to 8,0.12 to 0.25,0.25 to 1,0.12 to 0.25,0.25,0.25,1,≤0.03 to 0.06,0.06,0.06 to 0.25,0.25,≤ 0.03,0.06 to 0.25,0.5 to 1,1,"MIC Range (Staphylococcus aureus; S. aureus Linezolid^R, 5 contemporary clinical isolates): 0.25 to 0.5 µg/mL"
CC(=O)NC[C@H]1CN(c2ccc(N3CCOCC3)c(F)c2)C(=O)O1 [Linezolid],1 to 2,2,0.5 to 2,1,1 to 32,2 to 4,1 to 4,2 to 4,4,4,2,0.5 to 1,1,1 to 8,2,1,0.5 to 1,1 to 2,2,–
"CN[C@H](CC(C)C)C(=O)N[C@H]1C(=O)N[C@@H](CC(N)=O)C(=O)N[C@H]2C(=O)N[C@H]3C(=O)N[C@H](C(=O)N[C@H](C(=O)O)c4cc(O)cc(O)c4-c4cc3ccc4O)[C@H](O)c3ccc(c(Cl)c3)Oc3cc2cc(c3O[C@@H]2O[C@H](CO)[C@@H](O)[C@H](O)[C@H]2O[C@H]2C[C@](C)(N)[C@H](O)[C@H](C)O2)Oc2ccc(cc2Cl)[C@H]1O [Vancomycin, vancomycin]",–,> 32,–,0.5,–,–,–,–,1,1,8,–,0.25,–,2,0.25,–,–,> 32,MIC Range (Streptococcus agalactiae): 0.25 to 0.5 µg/mL; MIC Range (Staphylococcus aureus): 0.5 to 1 µg/mL and 0.5 to 2 µg/mL and 1 to 8 µg/mL and 0.5 to 8 µg/mL and 1 µg/mL; MIC Range (Streptococcus pyogenes): 0.25 µg/mL; MIC Range (S. epidermidis): 1 to 2 µg/mL; MIC Range (Streptococcus pneumoniae): 0.12 to 0.5 µg/mL; MIC Range [1]: 0.25 to 0.5 µg/mL; PD50 (protective dose at which half of the animals survive) (S. aureus MRSA ATCC33591): 2.75 mg per kg
